Measurements: patent publication US20090215752A1, “Compounds, preparation and therapeutic use thereof” (priority 2005, published 2009)

Key:
[1] = test system: PDE1; assay: Selectivity: inhibition of PDE1 (radioenzymatic assay); assay type: biochemical, bovine; conditions: Table 2
Method: (§1) 2.1.1. Isolation of Phosphodiesterases from Smooth Muscle A 3 g segment of bovine aortic media cut into pieces with scissors was homogenized with an ultra-turrax then a potter glass/glass homogenizer in 7 volumes by weight of buffer A containing a protease inhibitor cocktail (20 mM Tris-HCl, 0.25 M saccharose, 2 mM magnesium acetate, 1 mM dithiothreitol, 5 mM EGTA, 2000 U/ml aprotinin, 10 mg/l leupeptin and 10 mg/l soya trypsic inhibitor). The homogenizate was centrifuged at 105,000 g for 1 hour. The supernatant was loaded on a DEAE-Sephacel column (15×1.6 cm) pre-equilibrated with buffer B (buffer A without the saccharose, EGTA and protease inhibitors). The column was washed until there was no detectable absorption at 280 nm, then eluted with a linear gradient of NaCl (0-0.5 M) in buffer B. 3-ml fractions were collected and enzyme activity was determined under the conditions described hereinbelow to localize the different enzymes PDE1, PDE3, PDE4 and PDE5 which were aliquoted and frozen at −80° C. (Lugnier et al., Biochem. Phamacol., 1986, 35: 1746-1751). […]
(§2) Cyclic nucleotide phosphodiesterase activity was determined by a radioenzymatic method using tritium-labelled cyclic GMP or AMP (1 μM) as substrate (Lugnier et al., 1986). ^3H-labelled adenosine or guanosine monophosphate formed by hydrolysis of the radiolabelled cyclic nucleotide was then converted to ^3H-labelled adenosine or guanosine in a second reaction with one nucleotidase in excess. […] Nucleoside radioactivity was determined by liquid scintillation counting. […]
(§3) The activity of the compounds was evaluated on other phosphodiesterase isoforms, particularly basal state or calmodulin-activated PDE1 from vascular smooth muscle, PDE3, PDE4 and PDE5 from vascular smooth muscle. The results obtained are presented in Tables 1 and 2 hereinbelow and are expressed as the percentage inhibition of enzymatic activity produced by […] of the test compound.

[2] = molecular target: T1, PDE3 (Bos taurus, UniProt A0A3Q1M1E8); assay: Selectivity: inhibition of PDE3 (radioenzymatic assay); assay type: biochemical, bovine; conditions: Table 2; 10 μM compound; read-out: PDE3 percentage inhibition at 10 μM
T1 sequence (A0A3Q1M1E8 1-1126): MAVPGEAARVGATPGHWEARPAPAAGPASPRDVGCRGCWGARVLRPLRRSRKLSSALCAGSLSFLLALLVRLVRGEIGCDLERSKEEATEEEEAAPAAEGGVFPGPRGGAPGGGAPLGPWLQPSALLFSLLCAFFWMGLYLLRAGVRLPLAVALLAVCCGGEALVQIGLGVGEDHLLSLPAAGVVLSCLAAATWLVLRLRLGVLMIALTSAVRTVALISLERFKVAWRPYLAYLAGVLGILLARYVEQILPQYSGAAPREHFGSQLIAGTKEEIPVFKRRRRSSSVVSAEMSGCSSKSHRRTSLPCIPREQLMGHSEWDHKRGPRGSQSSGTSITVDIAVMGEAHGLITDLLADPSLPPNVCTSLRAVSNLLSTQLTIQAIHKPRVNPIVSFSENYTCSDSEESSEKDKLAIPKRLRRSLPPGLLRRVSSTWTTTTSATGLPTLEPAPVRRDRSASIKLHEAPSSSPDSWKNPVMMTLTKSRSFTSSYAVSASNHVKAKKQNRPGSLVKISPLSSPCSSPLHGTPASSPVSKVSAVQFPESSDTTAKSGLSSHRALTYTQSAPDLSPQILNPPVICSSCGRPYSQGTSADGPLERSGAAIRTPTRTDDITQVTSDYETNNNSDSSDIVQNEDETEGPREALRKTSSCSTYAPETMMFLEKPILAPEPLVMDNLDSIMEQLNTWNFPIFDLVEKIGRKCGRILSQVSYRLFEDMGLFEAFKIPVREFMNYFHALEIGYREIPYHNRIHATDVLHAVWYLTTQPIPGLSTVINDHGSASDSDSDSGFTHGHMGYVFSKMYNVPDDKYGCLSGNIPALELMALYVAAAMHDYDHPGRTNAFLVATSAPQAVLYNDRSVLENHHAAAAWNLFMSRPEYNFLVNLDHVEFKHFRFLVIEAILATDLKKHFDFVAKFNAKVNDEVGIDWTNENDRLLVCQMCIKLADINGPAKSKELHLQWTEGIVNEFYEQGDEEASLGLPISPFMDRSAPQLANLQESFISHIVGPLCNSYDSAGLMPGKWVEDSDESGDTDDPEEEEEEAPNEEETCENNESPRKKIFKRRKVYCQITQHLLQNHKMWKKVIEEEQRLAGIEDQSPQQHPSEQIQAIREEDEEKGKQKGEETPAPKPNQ
Method: as §1, §2, §3

[3] = test system: PDE4; assay: Selectivity: inhibition of PDE4 (radioenzymatic assay); assay type: biochemical, bovine; conditions: Table 2
Method: 2.1.1. Isolation of Phosphodiesterases from Smooth Muscle A 3 g segment of bovine aortic media cut into pieces with scissors was homogenized with an ultra-turrax then a potter glass/glass homogenizer in 7 volumes by weight of buffer A containing a protease inhibitor cocktail (20 mM Tris-HCl, 0.25 M saccharose, 2 mM magnesium acetate, 1 mM dithiothreitol, 5 mM EGTA, 2000 U/ml aprotinin, 10 mg/l leupeptin and 10 mg/l soya trypsic inhibitor). The homogenizate was centrifuged at 105,000 g for 1 hour. The supernatant was loaded on a DEAE-Sephacel column (15×1.6 cm) pre-equilibrated with buffer B (buffer A without the saccharose, EGTA and protease inhibitors). The column was washed until there was no detectable absorption at 280 nm, then eluted with a linear gradient of NaCl (0-0.5 M) in buffer B. 3-ml fractions were collected and enzyme activity was determined under the conditions described hereinbelow to localize the different enzymes PDE1, PDE3, PDE4 and PDE5 which were aliquoted and frozen at −80° C. (Lugnier et al., Biochem. Phamacol., 1986, 35: 1746-1751). PDE2 was isolated from human platelets, provided by Etablissement Français du Sang-Alsace, according to Kameni Tcheudji J F et al., (J. Mol. Biol. 2001; 310: 181-791), and stored until use at −80° C. in small aliquots.
Cyclic nucleotide phosphodiesterase activity was determined by a radioenzymatic method using tritium-labelled cyclic GMP or AMP (1 μM) as substrate (Lugnier et al., 1986). ^3H-labelled adenosine or guanosine monophosphate formed by hydrolysis of the radiolabelled cyclic nucleotide was then converted to ^3H-labelled adenosine or guanosine in a second reaction with […] in excess. The nucleoside formed was separated from the nucleotides by anion exchange chromatography. Nucleoside radioactivity was determined by liquid scintillation counting. Enzymatic incubations were carried out under conditions allowing no more than 15% hydrolysis of the substrate; each point was performed in duplicate.
as §3

[4] = molecular target: T2, sigma 2 receptors (Rattus norvegicus, UniProt Q5U3Y7); assay: Sigma 2 receptor binding ([3H]DTG + (+)pentazocine); conditions: [3H]DTG 5 nM + 300 nM (+)pentazocine, rat cerebral cortex, read-out: σ2 percentage inhibition at 10 μM
T2 construct: The sigma 2 receptors were isolated from rat cerebral cortex; from tissue; host or cells: rat cerebral cortex
T2 sequence (Q5U3Y7 1-176): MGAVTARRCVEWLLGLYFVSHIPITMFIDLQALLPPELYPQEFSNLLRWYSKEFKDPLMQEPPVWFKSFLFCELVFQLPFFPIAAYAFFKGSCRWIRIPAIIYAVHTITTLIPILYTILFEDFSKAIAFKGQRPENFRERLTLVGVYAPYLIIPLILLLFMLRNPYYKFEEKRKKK
Method: The sigma 1 receptors were isolated from guinea pig cerebral cortex according to the method described in Bowen et al., 1993.
Sigma 1 receptor binding was determined by a radioligand method using tritium-labelled (+)pentazocine (2 nM) as substrate (Bowen et al., 1993). Sigma 2 receptor binding was determined by a radioligand method using tritium-labelled DTG (+300 nM (+)pentazocine) (5 nM) as substrate (Bowen et al., 1993). Ligand radioactivity was determined by liquid scintillation counting. For sigma 1 binding evaluation, ligand incubations were carried out for one hundred fifty minutes at 22° C. For sigma 2 binding evaluation, ligand incubations were carried out for one hundred twenty minutes at 22° C. The experiments were conducted in duplicate.
The specific ligand binding to the sigma receptors was defined as the difference between the total binding and the non specific binding determined in presence of an excess of unlabelled ligand. The results obtained are presented in Table 4 hereinbelow and are expressed as percent of control specific binding and as a percent inhibition of control specific binding obtained in presence of 10 μM of substance.

SMILES: COc1cc2c(c(OC)c1-c1ccccc1)C(c1cccc(C(N)=O)c1)=NCC(=O)N2C [Compound 17, 3-(6,8-Dimethoxy-1-methyl-2-oxo-7-phenyl-2,3-dihydro-1H-benzo[e][1,4]diazepin-5-yl)-benzamide]
- PDE1 percentage inhibition at 10 μM ([1]; 10 μM compound): 22%
- IC50 ([1]; value in square brackets): 37 µM
- inhibition at 10 µM [2]: 20%
- PDE4 percentage inhibition at 10 μM ([3]; 10 μM compound): 23%
- IC50 ([3]; value in square brackets): 47 µM
- inhibition at 10 µM [4]: 93%
